Assay results taken from the supplement of paper PMC12463676, “Small-molecule dissolution of stress granules by redox modulation benefits ALS models” (Nature Chemical Biology, 2025).

Experiments:
[1] = compound: NC(=O)CCCCC1CCSS1 [lipoamide]; assay: thermal stability z-score vs DMSO; higher = more thermally stabilized by treatment; details: HeLa, lipoamide concentration 100 µM
Protocol: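 Cellular thermal proteome profiling in HeLa cells. Cells were treated with 100 µM lipoamide for 1 h, with or without 1 mM arsenate for a further 1 h, then heated to ten temperatures (37-66.3 °C), and soluble protein was quantified by TMT mass spectrometry relative to 0.1% DMSO controls. The thermal stability score (sum of log2 fold changes minus the abundance score) was transformed to a z-score; mean of n = 3 experiments.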

[2] = compound: O=[As]([O-])(O)O.[K+] [potassium arsenate]; assay: as above; details: HeLa; arsenate concentration 1 mM
Protocol: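 Cellular thermal proteome profiling in HeLa cells treated with 1 mM arsenate for 1 h (DMSO pretreatment), heated to ten temperatures (37-66.3 °C). Soluble protein was quantified by TMT mass spectrometry relative to DMSO controls; the thermal stability score was transformed to a z-score; mean of n = 3 experiments.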

[3] = arsenate co-treatment: 1 mM arsenate 1 h
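Also: each temperature applied for 3 min, abundance score taken as mean log2 fold change at the two lowest temperatures, z-score obtained by mean subtraction and division by SD.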

Sequence of UniProt P49366 (P49366 whole entry): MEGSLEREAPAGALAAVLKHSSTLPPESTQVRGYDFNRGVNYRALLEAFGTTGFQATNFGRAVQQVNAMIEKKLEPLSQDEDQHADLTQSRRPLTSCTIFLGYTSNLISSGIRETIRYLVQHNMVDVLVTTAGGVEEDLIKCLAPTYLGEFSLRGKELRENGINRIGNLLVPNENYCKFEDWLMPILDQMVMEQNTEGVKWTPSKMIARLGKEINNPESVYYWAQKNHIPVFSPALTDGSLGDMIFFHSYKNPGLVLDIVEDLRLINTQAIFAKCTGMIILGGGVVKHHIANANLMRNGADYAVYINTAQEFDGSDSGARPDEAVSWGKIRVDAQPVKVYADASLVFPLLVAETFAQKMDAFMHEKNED
Sequence of UniProt P13984 (P13984 whole entry): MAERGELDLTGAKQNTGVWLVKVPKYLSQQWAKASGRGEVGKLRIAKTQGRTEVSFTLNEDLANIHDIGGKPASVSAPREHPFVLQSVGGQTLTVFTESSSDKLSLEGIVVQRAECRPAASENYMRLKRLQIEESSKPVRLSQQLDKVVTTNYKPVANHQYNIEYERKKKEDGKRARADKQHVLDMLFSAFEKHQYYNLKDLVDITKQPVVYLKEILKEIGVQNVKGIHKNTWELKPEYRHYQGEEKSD
Sequence of UniProt O94762 (O94762 whole entry): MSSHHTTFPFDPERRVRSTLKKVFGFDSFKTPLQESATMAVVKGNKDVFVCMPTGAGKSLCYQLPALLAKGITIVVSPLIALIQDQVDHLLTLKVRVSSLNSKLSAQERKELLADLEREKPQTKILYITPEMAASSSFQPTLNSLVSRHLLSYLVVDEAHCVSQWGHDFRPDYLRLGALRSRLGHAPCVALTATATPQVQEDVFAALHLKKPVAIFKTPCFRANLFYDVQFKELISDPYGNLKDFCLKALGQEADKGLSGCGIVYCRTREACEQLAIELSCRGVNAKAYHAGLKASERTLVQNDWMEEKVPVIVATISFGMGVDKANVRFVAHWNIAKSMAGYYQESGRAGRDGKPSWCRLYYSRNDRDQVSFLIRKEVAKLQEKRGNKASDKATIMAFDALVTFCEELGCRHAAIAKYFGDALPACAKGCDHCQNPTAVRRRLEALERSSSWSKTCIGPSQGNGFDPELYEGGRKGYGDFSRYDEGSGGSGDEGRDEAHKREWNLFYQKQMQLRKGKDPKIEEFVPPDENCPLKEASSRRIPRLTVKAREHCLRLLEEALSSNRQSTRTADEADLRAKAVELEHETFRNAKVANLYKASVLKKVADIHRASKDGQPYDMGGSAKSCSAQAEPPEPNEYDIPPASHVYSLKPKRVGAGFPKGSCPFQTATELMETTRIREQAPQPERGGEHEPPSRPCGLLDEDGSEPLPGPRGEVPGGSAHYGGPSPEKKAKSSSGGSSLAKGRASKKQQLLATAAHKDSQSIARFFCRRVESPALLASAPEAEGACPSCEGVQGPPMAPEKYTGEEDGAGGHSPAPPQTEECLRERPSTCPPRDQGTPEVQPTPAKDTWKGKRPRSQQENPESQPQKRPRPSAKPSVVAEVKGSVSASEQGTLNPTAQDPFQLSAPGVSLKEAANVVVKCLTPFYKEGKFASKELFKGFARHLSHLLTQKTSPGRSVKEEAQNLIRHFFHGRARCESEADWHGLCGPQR
Sequence of UniProt P19525 (P19525 whole entry): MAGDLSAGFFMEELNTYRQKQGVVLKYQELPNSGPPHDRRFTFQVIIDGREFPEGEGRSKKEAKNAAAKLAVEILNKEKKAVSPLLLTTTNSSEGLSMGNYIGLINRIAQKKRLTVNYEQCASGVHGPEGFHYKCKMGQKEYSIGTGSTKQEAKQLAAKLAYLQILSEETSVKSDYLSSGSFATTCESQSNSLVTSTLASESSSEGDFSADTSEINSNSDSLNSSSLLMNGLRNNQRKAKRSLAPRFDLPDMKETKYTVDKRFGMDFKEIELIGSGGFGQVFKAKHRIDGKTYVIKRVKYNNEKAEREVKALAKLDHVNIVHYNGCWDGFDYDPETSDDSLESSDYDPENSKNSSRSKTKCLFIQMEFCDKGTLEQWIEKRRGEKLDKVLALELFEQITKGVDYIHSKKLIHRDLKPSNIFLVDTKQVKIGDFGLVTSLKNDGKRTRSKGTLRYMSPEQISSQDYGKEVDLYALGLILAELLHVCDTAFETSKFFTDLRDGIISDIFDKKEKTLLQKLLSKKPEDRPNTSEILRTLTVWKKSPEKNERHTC
Sequence of UniProt Q9BYJ9 (Q9BYJ9 whole entry): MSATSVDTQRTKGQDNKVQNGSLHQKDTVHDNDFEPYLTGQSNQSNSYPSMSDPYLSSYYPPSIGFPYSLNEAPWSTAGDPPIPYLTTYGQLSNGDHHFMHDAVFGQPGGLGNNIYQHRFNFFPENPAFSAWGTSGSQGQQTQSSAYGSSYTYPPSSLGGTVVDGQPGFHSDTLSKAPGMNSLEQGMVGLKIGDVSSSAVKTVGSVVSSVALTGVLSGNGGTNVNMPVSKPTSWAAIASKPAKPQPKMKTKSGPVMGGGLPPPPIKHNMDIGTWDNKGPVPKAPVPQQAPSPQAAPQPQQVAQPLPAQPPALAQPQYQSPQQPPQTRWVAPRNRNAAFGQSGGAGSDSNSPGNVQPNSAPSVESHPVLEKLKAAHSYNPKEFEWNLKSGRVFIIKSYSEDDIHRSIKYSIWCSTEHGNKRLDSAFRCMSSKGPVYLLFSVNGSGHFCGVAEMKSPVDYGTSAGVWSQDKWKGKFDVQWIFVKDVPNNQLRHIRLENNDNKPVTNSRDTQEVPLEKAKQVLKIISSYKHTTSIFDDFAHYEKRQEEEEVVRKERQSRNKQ
Sequence of UniProt O75477 (O75477 whole entry): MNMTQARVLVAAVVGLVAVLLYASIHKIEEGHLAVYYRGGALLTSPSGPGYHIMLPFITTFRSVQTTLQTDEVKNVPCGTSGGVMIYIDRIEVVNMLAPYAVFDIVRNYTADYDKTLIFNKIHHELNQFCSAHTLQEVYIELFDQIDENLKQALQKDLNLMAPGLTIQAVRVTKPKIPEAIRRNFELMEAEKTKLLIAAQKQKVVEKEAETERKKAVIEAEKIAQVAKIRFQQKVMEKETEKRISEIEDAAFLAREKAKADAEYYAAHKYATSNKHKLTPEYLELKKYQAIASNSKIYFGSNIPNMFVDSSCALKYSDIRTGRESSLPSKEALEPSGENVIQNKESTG
Sequence of UniProt Q9NQP4 (Q9NQP4 whole entry): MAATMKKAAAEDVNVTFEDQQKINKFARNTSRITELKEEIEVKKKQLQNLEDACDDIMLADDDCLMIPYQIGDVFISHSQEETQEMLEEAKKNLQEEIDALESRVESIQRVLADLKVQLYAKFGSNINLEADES
Sequence of UniProt Q3SY69 (Q3SY69 whole entry): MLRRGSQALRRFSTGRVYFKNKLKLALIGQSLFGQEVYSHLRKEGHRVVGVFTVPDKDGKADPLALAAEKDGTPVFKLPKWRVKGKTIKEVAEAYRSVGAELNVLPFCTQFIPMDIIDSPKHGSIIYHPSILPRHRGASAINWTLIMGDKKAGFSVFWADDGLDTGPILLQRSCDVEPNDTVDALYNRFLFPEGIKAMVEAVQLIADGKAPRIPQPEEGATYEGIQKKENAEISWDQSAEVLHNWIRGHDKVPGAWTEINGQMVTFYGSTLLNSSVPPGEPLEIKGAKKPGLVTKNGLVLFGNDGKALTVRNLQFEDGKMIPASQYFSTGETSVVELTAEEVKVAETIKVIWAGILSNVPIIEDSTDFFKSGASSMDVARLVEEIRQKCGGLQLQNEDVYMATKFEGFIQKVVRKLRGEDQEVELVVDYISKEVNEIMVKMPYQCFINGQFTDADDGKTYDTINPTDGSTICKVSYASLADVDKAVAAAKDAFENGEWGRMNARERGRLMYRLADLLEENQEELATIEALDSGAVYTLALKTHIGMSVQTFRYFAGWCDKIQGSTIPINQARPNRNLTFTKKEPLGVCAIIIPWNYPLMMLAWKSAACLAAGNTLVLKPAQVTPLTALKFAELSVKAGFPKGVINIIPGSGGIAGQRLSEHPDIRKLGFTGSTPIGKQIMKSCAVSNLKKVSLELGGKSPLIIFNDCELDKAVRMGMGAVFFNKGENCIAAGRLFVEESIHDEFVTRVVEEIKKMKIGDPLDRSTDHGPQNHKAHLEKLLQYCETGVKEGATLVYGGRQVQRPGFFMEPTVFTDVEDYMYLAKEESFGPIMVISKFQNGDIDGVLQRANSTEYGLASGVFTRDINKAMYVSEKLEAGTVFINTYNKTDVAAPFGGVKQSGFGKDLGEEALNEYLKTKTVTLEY
Sequence of UniProt P30101 (P30101 whole entry): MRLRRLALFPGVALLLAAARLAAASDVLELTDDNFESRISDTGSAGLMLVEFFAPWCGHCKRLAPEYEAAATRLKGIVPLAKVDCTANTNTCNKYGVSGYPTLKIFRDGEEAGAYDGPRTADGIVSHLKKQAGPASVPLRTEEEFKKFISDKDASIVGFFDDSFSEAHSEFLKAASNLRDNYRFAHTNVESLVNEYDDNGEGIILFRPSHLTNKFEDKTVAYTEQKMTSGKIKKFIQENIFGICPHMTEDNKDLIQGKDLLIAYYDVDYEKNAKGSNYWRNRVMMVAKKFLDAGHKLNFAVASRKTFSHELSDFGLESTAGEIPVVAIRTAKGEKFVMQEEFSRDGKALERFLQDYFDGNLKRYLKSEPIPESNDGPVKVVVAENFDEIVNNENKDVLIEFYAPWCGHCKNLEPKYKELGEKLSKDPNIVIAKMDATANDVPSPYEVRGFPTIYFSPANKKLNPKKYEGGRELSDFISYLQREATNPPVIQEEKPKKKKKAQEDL
Sequence of UniProt Q96FX7 (Q96FX7 whole entry): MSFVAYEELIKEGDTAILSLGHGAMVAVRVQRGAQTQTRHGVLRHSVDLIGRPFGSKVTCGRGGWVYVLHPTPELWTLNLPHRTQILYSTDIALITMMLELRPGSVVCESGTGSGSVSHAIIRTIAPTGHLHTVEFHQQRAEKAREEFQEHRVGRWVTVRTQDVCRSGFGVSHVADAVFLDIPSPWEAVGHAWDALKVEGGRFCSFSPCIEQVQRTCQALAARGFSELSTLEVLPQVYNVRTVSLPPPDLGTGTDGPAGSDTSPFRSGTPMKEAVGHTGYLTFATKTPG

Target	thermal stability z-score [1, 3]	thermal stability z-score ([1]; arsenate co-treatment: none)	thermal stability z-score [2]
EEF1E1 (UniProt O43324)	0.552	0.194	0.997
PHACTR2 (UniProt O75167)	0.56	-0.408	-0.387
STXBP1 (UniProt P61764)	-0.206	0.0929	0.156
PDE4D (UniProt Q08499)	0.651	0.623	0.101
EIF2AK2 (UniProt P19525)	-0.0654	-0.252	-1.01
GTPBP4 (UniProt Q9BZE4)	-0.6	0.00531	-1
AP1B1 (UniProt Q10567)	0.216	0.0123	0.425
VAMP7 (UniProt P51809)	-0.512	-0.444	-0.234
H6PD (UniProt O95479)	-1.51	-1.8	-0.472
SKIV2L2 (UniProt P42285)	0.46	0.334	0.0276
MYO5A (UniProt Q9Y4I1)	0.351	0.43	0.118
RAB2A (UniProt P61019)	0.405	0.206	0.296
PPP2R2A (UniProt P63151)	0.294	0.531	-0.49
MOB2 (UniProt Q70IA6)	-0.235	-0.176	0.0529
FOSL2 (UniProt P15408)	1.86	0.702	-2.25
RECQL5 (UniProt O94762)	-0.0312	0.0721	-0.222
C2ORF49 (UniProt Q9BVC5)	0.426	0.229	0.0813
APAF1 (UniProt O14727)	-0.167	-0.0627	-0.00853
PES1 (UniProt O00541)	-0.108	0.121	-0.721
ESRP2 (UniProt Q9H6T0)	-0.121	0.00175	0.0815
CDC42SE1 (UniProt Q9NRR8)	-0.0857	0.383	-0.154
FAM45BP|FAM45A	0.335	1.28	1.44
ERLIN1 (UniProt O75477)	-3.16	-2.57	-1.15
ITM2B (UniProt Q9Y287)	0.215	-0.0896	-0.251
RANBP3 (UniProt Q9H6Z4)	-0.326	0.21	-0.0109
CAP2 (UniProt P40123)	0.00549	-0.126	0.329
PDIA3 (UniProt P30101)	-3.75	-2.98	0.907
RASAL2 (UniProt Q9UJF2)	-0.126	0.0905	-0.227

Target	thermal stability z-score [1, 3]	thermal stability z-score ([1]; arsenate co-treatment: none)	thermal stability z-score [2]
MTA2 (UniProt O94776)	0.669	0.591	-0.245
DSTYK (UniProt Q6XUX3)	0.0406	-0.378	-0.117
LIN7C (UniProt Q9NUP9)	0.138	0.419	0.379
MRPL32 (UniProt Q9BYC8)	-0.0526	0.482	-0.401
RPAP1 (UniProt Q9BWH6)	-0.806	-0.223	0.256
BCL9 (UniProt O00512)	0.363	1.23	0.421
SUPT6H (UniProt Q7KZ85)	0.225	0.758	-1
GTF2F2 (UniProt P13984)	0.00925	-0.239	-0.198
DHPS (UniProt P49366)	0.538	0.536	0.603
ANTXR1 (UniProt Q9H6X2)	0.0337	-0.146	0.283
THADA (UniProt Q6YHU6)	-0.42	-0.349	-0.361
IFRD1 (UniProt O00458)	-0.177	-0.444	1.9
SNCG (UniProt O76070)	1.49	0.999	0.0455
MTHFD1L (UniProt Q6UB35)	-0.786	-0.399	-0.123
PFDN4 (UniProt Q9NQP4)	0.286	0.37	-0.445
NDE1 (UniProt Q9NXR1)	0.584	0.266	0.0354
CASC5 (UniProt Q8NG31)	-0.0952	-0.0158	0.219
MTPN (UniProt P58546)	0.382	0.145	-0.432
LARP1 (UniProt Q6PKG0)	0.375	0.88	1.03
PREX1 (UniProt Q8TCU6)	0.02	0.0645	-0.0577
TRMT61A (UniProt Q96FX7)	1.14	-1.08	-0.0703
C18ORF25 (UniProt Q96B23)	-0.688	-0.189	0.363
MIPEP (UniProt Q99797)	-0.162	0.0258	-0.271
ALDH1L2 (UniProt Q3SY69)	-0.223	0.327	0.559
TOMM34 (UniProt Q15785)	0.52	0.356	-0.0204
YTHDF1 (UniProt Q9BYJ9)	0.00152	-0.0393	-0.193
UBAP2L (UniProt Q14157)	0.549	0.413	-0.116
